From patent EP0054589B1, “Organic phosphoric acid ester derivatives, a process for preparing the same and insecticidal, miticidal or nematocidal compositions containing the same” (priority 1980, dated 1982)
Like-named read-outs stand apart in the source and are kept apart here.

How the values were obtained:
smaller tea tortrix = assay: Insecticidal effect on smaller tea tortrix (apple leaf dip); format: in vivo; settings: Adoxophyes orana, foliar, read-out: Percent Mortality
Description: Leaves of an apple tree were dipped into a dilute water suspension of a wettable powder prepared as described in Formulation Example 5. After drying in air, the leaves were charged in a 60 ml volume cup made of vinyl chloride resin, and […] 3rd-instar larvae of smaller tea tortrix were put in each cup. The cups were capped and kept at 25°C. After 72 hours, the number of the surviving insects and the dead insects were recorded to determine percent mortality. In each treatment, 3 cups and 30 insects were used in total.

rice stem borer = assay: Insecticidal effect on rice stem borer, 3rd-instar larvae (rice seedling dip); format: in vivo, Chilo suppressalis; settings: after 72 hours, 25°C
Description: (A) A wettable powder prepared as described in Formulation Example 5 was diluted with water to a predetermined concentration. Rice seedlings were dipped into the dilute solution and placed in a 60 ml volume cup made of vinyl chloride resin, and 10 3rd-instar larvae of rice stem borer were put in each cup. The cups were capped and maintained at 25°C.
(B) A wettable powder prepared as described in Formulation Example 7 was diluted with water to a predetermined concentration. Rice seedlings were dipped into the dilute solution and placed in a 60 ml volume cup made of vinyl chloride resin, and 10 3rd-instar larvae of rice stem borer were put in each cup. The cups were capped and maintained at 25°C.

tobacco cutworm [1] = assay: Insecticidal effect on tobacco cutworm (cabbage leaf dip); format: in vivo, Prodenia litura; settings: after 48 hours, 25°C
Description: (A) An emulsifiable concentrate prepared as described in Formulation Example 1 was diluted with water to a predetermined concentration and then cabbage leaves were dipped into the dilute solution and dried in air and placed in a 60 ml volume cup made of vinyl chloride resin. 3rd-instar larvae of tobacco cutworm were put in each cup and maintained at 25°C. After 48 hours, percent mortality was assessed. The test was replicated 3 times for each compound using 30 insects in each test.
(B) An emulsifiable concentrate prepared as described in Formulation Example 3 was diluted with water to a predetermined concentration and then cabbage leaves were dipped into the dilute solution and dried in air and placed in a 60 ml volume cup made of vinyl chloride resin. 3rd-instar larvae of tobacco cutworm were put in each cup and maintained at 25°C. After 48 hours, percent mortality was assessed. The test was replicated 3 times for each compound using 30 insects in each test.

tobacco cutworm [2] = assay: Long-lasting insecticidal effect on tobacco cutworm (sprayed cabbage plantlet); format: in vivo, Prodenia litura; settings: concentration 500 (unit not given), mortality after 48 hours; for Percent Mortality After Application 3rd Day: leaves cut on 3rd day; for Percent Mortality After Application 5th Day: leaves cut on 5th day; for Percent Mortality After Application 7th Day: leaves cut on 7th day; for Percent Mortality After Application 10th Day: leaves cut on 10th day
Description: (§1) (A) An emulsifiable concentrate prepared as described in Formulation Example 2 was diluted with water to a predetermined concentration and sprayed onto a cabbage plantlet in a flower pot of 15 cm in diameter using a spray-gun sufficiently and the tests plants were placed in a green house. The leaves of the plants were cut off on the 3rd, 5th, 7th, 10th and 15th day and placed in a 60 ml volume cup and 3rd-instar larvae of tobacco cutworm were put in each cup. The cups were kept in an incubator (25°C). After 48 hours, percent mortality was assessed. The tests was replicated 3 times for each compound using 30 insects in each test.
as §1, with “(B) An” for “(A) An”, “Example 3” for “Example 2”, “and 1 5th” for “and 15th”

diamond back moth = assay: Insecticidal effect on diamond-back moth (cabbage leaf dip); format: in vivo, Plutella xylostella; settings: Table 8; 100 ppm; after 72 hours, 25°C; emulsifiable concentrate as Formulation Example 4
Description: (A) An emulsifiable concentrate prepared as described in Formulation Example 1 was diluted with water to a predetermined concentration and leaves of a cabbage were dipped into the dilute emulsion for 10 seconds followed by drying in air, and charged in a 60 ml volume cup made of vinyl chloride resin. Then, thirty 3rd-instar larvae of diamond back moth were put in each cup, and the cups were kept at 25°C. After 72 hours, percent mortality was assessed and the test was replicated 3 times for each treatment.
(B) An emulsifiable concentrate prepared as described in Formulation Example 4 was diluted with water to a predetermined concentration and leaves of a cabbage were dipped into the dilute emulsion for 10 seconds followed by drying in air, and charged in a 60 ml volume cup made of vinyl chloride resin. Then, thirty 3rd-instar larvae of diamond back moth were put in each cup, and the cups were kept at 25°C. After 72 hours, percent mortality was assessed and the test was replicated 3 times for each treatment.

apple leaf miner = assay: Insecticidal effect on apple leaf miner (sprayed apple seedling); format: in vivo, Lithocolletis ringoniella; settings: Phyllonorycter ringoniella, 336 h, 500 ppm, fourteen days after spraying
Description: (A) A dilute water suspension of a wettable powder prepared as described in Formulation Example 5 was sufficiently sprayed using a spray-gun on a seedling of an apple tree planted in a bisque flower pot to which plant larvae of apple leaf miner just after hatching were parasitic. Thereafter the pots were placed in a green house. Fourteen days after the spraying, bores made by larvae were broken and percent mortality was assessed for all the leaves of each seedling. Three pots were used for each treatment.
(B) A dilute water suspension of a wettable powder prepared as described in Formulation Example 7 was sufficiently sprayed using a spray-gun on a seedling of an apple tree planted in a bisque flower pot to which plant larvae of apple leaf miner just after hatching were parasitic. Thereafter the pots were placed in a green house. Fourteen days after the spraying, bores made by larvae were broken and percent mortality was assessed for all the leaves of each seedling. Three pots were used for each treatment.

Apple = assay: Phytotoxicity on various crops; format: in vivo; set-up: key: Symbol — indicates that no toxicity was observed; settings: 500 ppm sprayed; checked visually after 10 days
Description: (§2) An emulsifiable concentrate prepared as described in Formulation Example 2 was diluted with water to a concentration of 500 ppm based on the effective ingredient and sprayed sufficiently using a spray-gun onto various test plants. The plants were kept in a green house. After 10 days from the application phytotoxicity was checked visually. The test was replicated 3 times for each compound.

Beet = assay: Phytotoxicity on various crops; format: in vivo; set-up: key: Symbol — indicates that no toxicity was observed; settings: 500 ppm sprayed; checked visually after 10 days
Description: as §2

Cabbage = assay: Phytotoxicity on various crops; format: in vivo; set-up: key: Symbol — indicates that no toxicity was observed; settings: 500 ppm sprayed; checked visually after 10 days
Description: as §2

Cotton = assay: Phytotoxicity on various crops; format: in vivo; set-up: key: Symbol — indicates that no toxicity was observed; settings: 500 ppm sprayed; checked visually after 10 days
Description: as §2

Cucumber = assay: Phytotoxicity on various crops; format: in vivo; set-up: key: Symbol — indicates that no toxicity was observed; settings: 500 ppm sprayed; checked visually after 10 days
Description: as §2

Green Pepper = assay: Phytotoxicity on various crops; format: in vivo; set-up: key: Symbol — indicates that no toxicity was observed; settings: 500 ppm sprayed; checked visually after 10 days
Description: as §2

Kidney Bean = assay: Phytotoxicity on various crops; format: in vivo; set-up: key: Symbol — indicates that no toxicity was observed; settings: 500 ppm sprayed; checked visually after 10 days
Description: as §2

Rice = assay: Phytotoxicity on various crops; format: in vivo; set-up: key: Symbol — indicates that no toxicity was observed; settings: 500 ppm sprayed; checked visually after 10 days
Description: as §2

Tea = assay: Phytotoxicity on various crops; format: in vivo; set-up: key: Symbol — indicates that no toxicity was observed; settings: 500 ppm sprayed; checked visually after 10 days
Description: as §2

Tomato = assay: Phytotoxicity on various crops; format: in vivo; set-up: key: Symbol — indicates that no toxicity was observed; settings: 500 ppm sprayed; checked visually after 10 days
Description: as §2

egg plant = assay: Phytotoxicity on various crops; format: in vivo; set-up: key: Symbol — indicates that no toxicity was observed; settings: 500 ppm sprayed; checked visually after 10 days
Description: as §2

[3] = Table 2, 100 ppm, wettable powder as Formulation Example 7
[4] = Table 4, 100 ppm, emulsifiable concentrate as Formulation Example 3
[5] = Table 1, 500 ppm, wettable powder as Formulation Example 5
[6] = Table 10, wettable powder as Formulation Example 5, read-out: Percent Morality (%)

| Structure (SMILES) | Percent Mortality (%) (rice stem borer; [3]) | Percent Mortality (%) (tobacco cutworm [1]; [4]) | Percent Mortality After Application 3rd Day (tobacco cutworm [2]; Table 6) [%] | Percent Mortality After Application Immediately after Application (tobacco cutworm [2]; Table 6) [%] | Phytotoxicity: Apple (Apple) | Phytotoxicity: Beet (Beet) | Phytotoxicity: Cabbage (Cabbage) | Phytotoxicity: Cotton (Cotton) | Phytotoxicity: Cucumber (Cucumber) | Phytotoxicity: Green Pepper (Green Pepper) | Phytotoxicity: Kidney Bean (Kidney Bean) | Phytotoxicity: Rice (Rice) | Phytotoxicity: Tea (Tea) | Phytotoxicity: Tomato (Tomato) | Phytotoxicity: Egg Plant (egg plant) | Percent Mortality (%) (rice stem borer; [5]) | mortality at 500 ppm (apple leaf miner; [6]) [%] | further results |
| --- | --- | --- | --- | --- | --- | --- | --- | --- | --- | --- | --- | --- | --- | --- | --- | --- | --- | --- |
| CCOP(=S)(OCC)Oc1cc(C)nc(C(C)C)n1 [Diazinon, 0,0-diethyl (O-2-isopropyl-6-methyl-pyrimidin-4-yl)phosphorothioate, reference compound] |  |  |  |  |  |  |  |  |  |  |  |  |  |  |  |  |  | mortality at 100 ppm (smaller tea tortrix; 72 h): 43.3% |
| CCC(C)SP(=O)(OC)Oc1ccc2c(c1)OC(C)(C)C=C2C (centres unmarked) [Compound No. 24] | 100 | 100 | 100 | 100 | — | — | — | — | — | — | — | — | — | — | — |  |  | Percent Mortality After Application 5th Day (tobacco cutworm [2]; Table 6): 93.3%; Percent Mortality After Application 7th Day (tobacco cutworm [2]; Table 6): 60.0%; Percent Mortality After Application 10th Day (tobacco cutworm [2]; Table 6): 23.3%; Percent Mortality (%) (diamond back moth): 100%; mortality at 500 ppm (apple leaf miner; Table 11, wettable powder as Formulation Example 7, read-out: Percent Mortality (%)): 100% |
| CCOP(=O)(Oc1ccc2c(c1)OC(CC)=C(C)C2(CC)CC)SC(C)CC (centres unmarked) [Compound No. 19] | 100 | 100 |  |  | — | — | — | — | — | — | — | — | — | — | — | 100 | 100 | Percent Mortality (%) (rice stem borer; Table 1, 100 ppm, wettable powder as Formulation Example 5): 100% |
| COP1(=S)OCc2ccccc2O1 (centres unmarked) [Salithion, 2-methoxy-4H-benzo-1,3,2-dioxaphosphorin 2-sulphide, reference compound] |  |  | 0 | 100 |  |  |  |  |  |  |  |  |  |  |  |  | 95 | Percent Mortality After Application 3rd Day (tobacco cutworm [2]; Table 5): 20%; Percent Mortality After Application 5th Day (tobacco cutworm [2]; Table 5): 0%; Percent Mortality After Application 7th Day (tobacco cutworm [2]; Table 5): 0%; Percent Mortality After Application 10th Day (tobacco cutworm [2]; Table 5): 0%; Percent Mortality After Application 15th Day (tobacco cutworm [2]; Table 5, leaves cut on 15th day): 0% |
| CCOP(=O)(Oc1ccc2c(c1)OC(C)=CC2(C)C)SC(C)C (centres unmarked) [compound 14] |  |  |  |  | — | — | — | — | — | — | — | — | — | — | — | 100 |  | Percent Mortality (%) (tobacco cutworm [1]; Table 3, 500 ppm, emulsifiable concentrate as Formulation Example 1): 100%; mortality at 100 ppm (smaller tea tortrix; Table 9, 100 ppm, after 72 hours, 25°C, wettable powder as Formulation Example 5): 83.3% |
